Reference: publication PMC2931832 (ACS medicinal chemistry letters, 2010)
pIC50: −log10 of the molar value.

Tests used:
[1] = molecular target: EGFR (Homo sapiens, UniProt P00533); experiment: EGFR kinase activity, fluorescence-based coupled-enzyme assay; assay type: biochemical
[2] = molecular target: human Ether-a-go-go Related Gene (hERG) K+ channel (Homo sapiens, UniProt Q12809); experiment: hERG K+ channel binding / blockage; conditions: 6 µM of compound
[3] = molecular target: CYP2C9 (Homo sapiens, UniProt P11712); experiment: cytochrome p450 CYP2C9 inhibition; conditions: 6 µM of compound
CYP2C9, sequence (P11712 whole entry): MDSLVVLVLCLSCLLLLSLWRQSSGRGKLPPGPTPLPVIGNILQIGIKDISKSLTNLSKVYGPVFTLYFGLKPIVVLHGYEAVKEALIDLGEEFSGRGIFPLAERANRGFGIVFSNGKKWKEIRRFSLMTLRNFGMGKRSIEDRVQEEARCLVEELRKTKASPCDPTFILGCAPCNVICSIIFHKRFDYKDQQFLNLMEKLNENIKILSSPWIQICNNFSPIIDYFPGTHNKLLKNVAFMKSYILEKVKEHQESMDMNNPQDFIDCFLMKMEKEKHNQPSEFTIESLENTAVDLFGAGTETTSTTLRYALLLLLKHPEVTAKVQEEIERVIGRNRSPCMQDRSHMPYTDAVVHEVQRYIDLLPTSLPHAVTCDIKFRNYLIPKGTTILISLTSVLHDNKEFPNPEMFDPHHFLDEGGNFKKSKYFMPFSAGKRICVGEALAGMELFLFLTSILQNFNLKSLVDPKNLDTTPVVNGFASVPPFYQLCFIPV

[4] = test system: H1299 lung tumor cell; experiment: cell culture-based proliferation assay, H1299; conditions: Homo sapiens, NCI-H1299, read-out: IC50 of H1299 tumor cell growth
[5] = test system: breast, ovarian and lymphatic leukemia; conditions: cited from earlier work
[6] = test system: H460 lung tumor cell; experiment: cell culture-based proliferation assay, H460; conditions: Homo sapiens, NCI-H460, read-out: IC50 of H460 tumor cell growth

EGFR, sequence (P00533 25-1210): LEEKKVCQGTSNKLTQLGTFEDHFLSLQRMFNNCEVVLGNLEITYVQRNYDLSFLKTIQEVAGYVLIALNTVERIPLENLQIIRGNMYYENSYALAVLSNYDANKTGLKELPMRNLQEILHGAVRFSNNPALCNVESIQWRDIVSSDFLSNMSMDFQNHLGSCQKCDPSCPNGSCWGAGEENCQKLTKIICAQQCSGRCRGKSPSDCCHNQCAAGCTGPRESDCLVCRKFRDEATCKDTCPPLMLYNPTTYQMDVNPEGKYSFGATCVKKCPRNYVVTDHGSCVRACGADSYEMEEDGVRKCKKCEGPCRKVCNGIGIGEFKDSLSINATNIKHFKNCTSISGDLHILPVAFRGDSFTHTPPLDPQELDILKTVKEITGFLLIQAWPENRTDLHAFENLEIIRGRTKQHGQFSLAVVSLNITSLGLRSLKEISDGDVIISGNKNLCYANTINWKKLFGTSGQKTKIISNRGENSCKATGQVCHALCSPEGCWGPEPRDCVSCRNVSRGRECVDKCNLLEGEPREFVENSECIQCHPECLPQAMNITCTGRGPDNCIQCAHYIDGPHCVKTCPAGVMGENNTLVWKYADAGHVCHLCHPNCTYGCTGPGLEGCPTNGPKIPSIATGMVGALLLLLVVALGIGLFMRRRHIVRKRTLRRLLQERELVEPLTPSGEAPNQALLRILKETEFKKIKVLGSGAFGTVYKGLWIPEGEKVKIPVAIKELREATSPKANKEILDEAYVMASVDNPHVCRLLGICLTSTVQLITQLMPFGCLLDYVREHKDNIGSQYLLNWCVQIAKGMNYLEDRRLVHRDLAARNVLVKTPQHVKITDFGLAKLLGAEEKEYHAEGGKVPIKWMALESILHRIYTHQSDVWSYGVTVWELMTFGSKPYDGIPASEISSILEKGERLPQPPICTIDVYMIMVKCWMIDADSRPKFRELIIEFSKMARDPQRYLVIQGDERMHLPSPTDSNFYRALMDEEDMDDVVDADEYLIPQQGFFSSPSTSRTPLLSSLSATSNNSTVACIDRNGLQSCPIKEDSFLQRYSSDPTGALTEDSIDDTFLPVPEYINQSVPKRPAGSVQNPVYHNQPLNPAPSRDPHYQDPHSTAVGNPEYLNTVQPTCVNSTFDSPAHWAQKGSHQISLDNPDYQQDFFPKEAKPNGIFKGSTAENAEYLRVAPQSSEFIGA
human Ether-a-go-go Related Gene (hERG) K+ channel, sequence (Q12809 whole entry): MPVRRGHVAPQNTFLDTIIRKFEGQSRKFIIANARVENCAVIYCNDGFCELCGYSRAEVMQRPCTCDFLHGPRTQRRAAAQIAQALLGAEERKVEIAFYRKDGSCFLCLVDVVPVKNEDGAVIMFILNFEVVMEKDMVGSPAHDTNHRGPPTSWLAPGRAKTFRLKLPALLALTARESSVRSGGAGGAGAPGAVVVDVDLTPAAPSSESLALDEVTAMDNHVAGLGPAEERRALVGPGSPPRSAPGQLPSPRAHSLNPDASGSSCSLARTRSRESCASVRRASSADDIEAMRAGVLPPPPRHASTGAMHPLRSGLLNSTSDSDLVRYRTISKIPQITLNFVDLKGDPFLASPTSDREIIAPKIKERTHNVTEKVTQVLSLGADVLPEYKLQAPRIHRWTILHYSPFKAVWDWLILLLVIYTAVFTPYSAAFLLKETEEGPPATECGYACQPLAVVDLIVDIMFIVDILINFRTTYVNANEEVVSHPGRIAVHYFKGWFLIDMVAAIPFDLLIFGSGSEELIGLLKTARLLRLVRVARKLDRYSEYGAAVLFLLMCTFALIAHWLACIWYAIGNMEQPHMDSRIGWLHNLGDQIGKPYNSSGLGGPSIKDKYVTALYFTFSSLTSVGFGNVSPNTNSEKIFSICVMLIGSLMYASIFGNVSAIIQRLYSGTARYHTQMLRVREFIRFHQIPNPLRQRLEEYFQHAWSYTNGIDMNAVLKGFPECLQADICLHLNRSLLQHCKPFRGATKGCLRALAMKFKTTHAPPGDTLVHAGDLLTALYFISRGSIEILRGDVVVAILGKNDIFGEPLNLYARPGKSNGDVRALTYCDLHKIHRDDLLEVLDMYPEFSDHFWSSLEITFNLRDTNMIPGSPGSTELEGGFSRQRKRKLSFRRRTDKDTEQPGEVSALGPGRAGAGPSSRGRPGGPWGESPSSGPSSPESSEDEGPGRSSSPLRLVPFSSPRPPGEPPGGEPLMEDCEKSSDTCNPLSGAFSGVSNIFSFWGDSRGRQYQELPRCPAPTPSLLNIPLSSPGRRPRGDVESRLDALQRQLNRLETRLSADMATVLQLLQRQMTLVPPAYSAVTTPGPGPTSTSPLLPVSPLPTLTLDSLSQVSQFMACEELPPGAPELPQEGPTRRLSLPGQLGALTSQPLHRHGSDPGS

pIC50 [6]	SMILES	pIC50 [1]	hERG K+ channel blockage (in words) [2]	inhibition of CYP2C9 (in words) [3]	pIC50 [4]	efficacy in breast, ovarian and lymphatic leukemia [5]
	C[C@H]1Oc2cc3c(-c4c(O)cc(O)c5c(O)c6c(cc45)O[C@H](C)[C@@H](C)C6=O)c(O)cc(O)c3c(O)c2C(=O)[C@@H]1C [Compound 12, Chaetochromin A]	6.60	significant blockage	significant inhibition	~6.00	shown efficacy
~5.00	C#Cc1cccc(Nc2ncnc3cc(OCCOC)c(OCCOC)cc23)c1 [erlotinib, reference compound]			little inhibition	~5.00	
